Source: ChEMBL document CHEMBL4130363, “Synthesis and pharmacological evaluation of benzamide derivatives as potent and selective sigma-1 protein ligands” (Eur J Med Chem, 2017)

Legend:
SH-SY5Y = assay: Cytotoxicity against human SH-SY5Y cells assessed as reduction in cell viability after 72 hrs by MTT assay; format: cell-based
S1R (sigma-1 receptor) = assay: Selectivity index, ratio of IC50 for human SH-SY5Y cells to Ki for S1R in human Jurkat cell membranes; format: toxicity, cell-based
[1] = biological target: Sigma non-opioid intracellular receptor 1 (Homo sapiens, UniProt Q99720); assay: Displacement of [3H](+)-pentazocine from S1R in human Jurkat cell membranes after 2 hrs by liquid scintillation counting
Sigma non-opioid intracellular receptor 1, sequence (Q99720 whole entry): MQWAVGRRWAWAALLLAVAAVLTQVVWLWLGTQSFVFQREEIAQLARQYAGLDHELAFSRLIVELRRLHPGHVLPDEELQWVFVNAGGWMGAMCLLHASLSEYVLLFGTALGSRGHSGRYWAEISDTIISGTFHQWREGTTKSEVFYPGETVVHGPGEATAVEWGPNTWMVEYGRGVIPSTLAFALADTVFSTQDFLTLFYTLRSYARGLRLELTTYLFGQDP

[2] = biological target: Sigma intracellular receptor 2 (Homo sapiens, UniProt Q5BJF2); assay: Displacement of [3H]-DTG from S2R in human Jurkat cell membranes after 1 hr in presence of (+)-pentazocine by liquid scintillation counting
Sigma intracellular receptor 2, sequence (Q5BJF2 whole entry): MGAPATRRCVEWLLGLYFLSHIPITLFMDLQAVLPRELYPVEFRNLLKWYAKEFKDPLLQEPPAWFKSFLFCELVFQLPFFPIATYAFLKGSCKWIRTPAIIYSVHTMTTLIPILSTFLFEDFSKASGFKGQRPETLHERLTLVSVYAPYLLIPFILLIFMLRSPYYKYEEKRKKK

Ki [1] [nM] | Ki [2] [nM] | Structure (SMILES) | IC50 (SH-SY5Y) [nM] | selectivity ratio (S1R (sigma-1 receptor))
> 100 | > 200 | O=C(NCCN1CCCC1)c1ccc(Cl)cc1 | > 100000 | –
> 100 | > 200 | CN1CCN(CCNC(=O)c2ccc(Cl)cc2)CC1 | > 100000 | –
6.5 | 110 | CN(CCNC(=O)c1cccc(Cl)c1Cl)Cc1ccccc1 | > 100000 | > 15400
> 100 | > 200 | O=C(NCCCN1CCOCC1)c1ccc(Cl)cc1 [EPROBEMIDE] | > 100000 | –
19 | 350 | O=C(NCCCN1Cc2ccccc2C1)c1ccc(Cl)cc1 | > 100000 | > 5260

The next lines start with the molecule.

Structure (SMILES) | Ki [1] [nM] | Ki [2] [nM] | IC50 (SH-SY5Y) [nM] | selectivity ratio (S1R (sigma-1 receptor))
CN(CCCNC(=O)c1cc(Cl)cc(Cl)c1)Cc1ccccc1 | – | – | 60000 | 2610
O=C(NCCN1CCOCC1)c1ccc(Cl)cc1 [MOCLOBEMIDE] | > 100 | > 200 | > 100000 | –
CN(CCCNC(=O)c1ccc(F)cc1)Cc1ccccc1 | – | – | > 100000 | > 5000
CN(CCCNC(=O)c1cccc(Cl)c1)Cc1ccccc1 | – | – | > 100000 | > 10000
CN(CCCNC(=O)c1ccc(Br)cc1F)Cc1ccccc1 | – | 200 | > 100000 | > 34500
